Reference: paper PMC8688997, “Five Constituents Contributed to the Psoraleae Fructus-Induced Hepatotoxicity via Mitochondrial Dysfunction and Apoptosis” (Frontiers in Pharmacology, 2021)
“Also recorded” adds a separate entry of the source. Like-named read-outs stand apart in the source and are kept apart here. One block for each compound: values may come before it.

Experiments:
L02 cells [1] = assay: ALP, ALT and AST in cell culture supernatant, L02 cells; format: cell-based, human
Protocol: (§1) L02 and HepG2 cells were cultured in 6-well plates at a density of 2 × 10^5 cells/well. Subsequently, they were incubated with bavachin, psoralidin, bavachinin, neobavaisoflavone, and bakuchiol for 24 h, and the cell supernatant was collected. Lastly, aspartate aminotransferase (AST), alanine aminotransferase (ALT), and ALP were detected using a CX4 Pro automatic biochemical analyzer (Beckman, Brea, CA, USA).

L02 and HepG2 cells [2] = format: cell-based; conditions: human, 24 h
Protocol: (§2) Here, L02 and HepG2 cells were plated at a density of […] in 96-well plates. Then, they were treated with bavachin (17, 34, and 68 μmol/L), psoralidin (11.5 23, and 46 μmol/L), bavachinin (15, 30, and 60 μmol/L), neobavaisoflavone (23.5, 47, and 94 μmol/L), and bakuchiol (13, 26, and 52 μmol/L) for 24 h. Then Hoechst 33342, eBioscience™ JC-1 Mitochondrial Membrane Potential Dye, CellROX Deep Red, and HCS LipidTOX™ Green Phospholipidosis Detection Reagent kits were used to characterize their cell counts, nuclear area, MMP, ROS, and intracellular lipid. Consequently, multi-parameter cytotoxicity was analyzed through high-content screening (HCS) analysis (IN Cell Analyzer 2500 HS; Cytiva, Marlborough, MA, USA). Then, a 20× objective was used to collect all images. Three independent wells were examined for each treatment, and 16 fields per well were captured during the analysis. Lastly, HCS analysis was performed using Automated Image and Cell Analysis software (IN Cell Analyzer 2000; USA).

L02 and HepG2 cells [3] = assay: CCK-8 cell viability assay, L02 and HepG2 cells not distinguished; format: cell-based, human; conditions: for effect on cell viability / hepatocyte toxicity (in words): L02 and HepG2 cells; for IC50: read-out: IC50 value (approximate, discussion)
Protocol: (§3) L02 and HepG2 cells were purchased from the China Infrastructure of Cell Line Resources (Beijing, China). They were cultured in Dulbecco’s modified Eagle’s medium (DMEM) high glucose medium (Gibco, Grand Island, NY, USA) supplemented with 10% (v/v) fetal bovine serum (FBS) (Gibco, Melbourne, VIC, Australia) and 1% U/ml of antibiotics (penicillin and streptomycin) at 37°C in an atmosphere containing 5% CO2.
The viability of L02 and HepG2 cells was determined using the CCK-8 assay. L02 and HepG2 cells (1 × 10^4 cells/well) were seeded into 96-well plates for 12 h until they visibly reached confluence. […] Consequently, these cells were incubated for 24 h, and 100 μl of 10% (v/v) CCK-8 medium solution was added to each well for 2 h. The absorbance (optical density (OD)) of the culture medium was detected at 450 nm using a Multiskan GO microplate reader (Thermo Fisher Scientific). Each experiment was repeated thrice, and each treatment was probed in at least six wells. The following equation was used to calculate the viability of the cells (%): Cell Viability (%)=ODcompound−ODblank/ODcontrol−ODblank×100%

L02 cells [4] = assay: CCK-8 cell viability assay, L02 cells; format: cell-based, human
Protocol: as §3
(§4) The viability of L02 and HepG2 cells was determined using the CCK-8 assay. L02 and HepG2 cells (1 × 10^4 cells/well) were seeded into 96-well plates for 12 h until they visibly reached confluence. Then, the adherent cells were treated with varying concentrations of psoralen (120.86, 161.34, 215.12, 286.83, 382.44, 509.92, 679.90, and 906.53 μmol/L), isopsoralen (161.15, 214.87, 286.64, 382.47, 509.88, 679.85, 906.53, and 1,208.64 μmol/L), bavachin (16.40, 21.95, 29.23, 38.97, 52.04, 69.37, 92.49, and 123.32 μmol/L), psoralidin (8.92, 11.89, 15.82, 21.17, 28.19, 37.58, 50.19, and 66.90 μmol/L), bavachinin (11.82, 15.72, 21.04, 28.01, 37.35, 49.88, 66.49, and 88.65 μmol/L), neobavaisoflavone (5.21, 9.30, 16.50, 29.41, 52.36, 93.07, 165.53, and 294.46 μmol/L), and bakuchiol (11.70, 15.60, 20.75, 27.77, 36.97, 49.30, 65.84, and 87.76 μmol/L). Consequently, these cells were incubated for 24 h, and 100 μl of 10% (v/v) CCK-8 medium solution was added to each well for 2 h. The absorbance (optical density (OD)) of the culture medium was detected at 450 nm using a Multiskan GO microplate reader (Thermo Fisher Scientific). Each experiment was repeated thrice, and each treatment was probed in at least six wells. The following equation was used to calculate the viability of the cells (%): Cell Viability (%)=ODcompound−ODblank/ODcontrol−ODblank×100%

HepG2 cells [5] = assay: CCK-8 cell viability assay, HepG2 cells; format: cell-based, human
Protocol: as §3, §4

L02 and HepG2 cells [6] = assay: Annexin V-FITC/PI flow cytometry apoptosis assay, L02 and HepG2 cells not distinguished; format: cell-based, human
Protocol: (§5) First, L02 and HepG2 cells were cultured in 6-well plates at a density of 5 × 10^5 cells/well. Then, they were treated with bavachin (17, 34, and 68 μmol/L), psoralidin (11.5, 23, and 46 μmol/L), bavachinin (15, 30, and 60 μmol/L), neobavaisoflavone (23.5, 47, and 94 μmol/L), and bakuchiol (13, 26, and 52 μmol/L) for 48 h, harvested, and washed with PBS. The apoptosis rate was measured using Pharmingen™ FITC Annexin V Apoptosis Detection Kit I (BD, 556,547, USA) following the instructions from the manufacturer. With the use of a FACSCalibur cytometer (Becton Dickinson, San Jose, CA, USA), 1 × 10^4 cells were acquired and analyzed.

HepG2 cells [7] = assay: HCS CellROX Deep Red ROS assay, HepG2 cells; format: cell-based, human
Protocol: as §2

L02 and HepG2 cells [8] = assay: HCS JC-1 mitochondrial membrane potential (MMP) assay, L02 and HepG2 cells; format: cell-based, human; conditions: 60 μmol/L; 24 h
Protocol: as §2

L02 and HepG2 cells [9] = assay: HCS LipidTOX Green intracellular lipid assay, L02 and HepG2 cells not distinguished; format: cell-based, human
Protocol: as §2

HepG2 cells [10] = test system: HepG2 cells; design: method as in Yu et al., 2020; conditions: another report; ref Yu et al., 2020; read-out: concentration inhibiting 50% cell viability; cited from earlier work
L02 and HepG2 cells [11] = format: cell-based, human
Protocol: as §1

HepG2 cells [12] = assay: ALP, ALT and AST in cell culture supernatant, HepG2 cells; format: cell-based, human; conditions: 46 μmol/L, 24 h
Protocol: as §1

L02 cells [13] = assay: HCS CellROX Deep Red ROS assay, L02 cells; format: cell-based, human; conditions: only at 68 μmol/L, 24 h
Protocol: as §2

L02 cells [14] = assay: Annexin V-FITC/PI flow cytometry apoptosis assay, L02 cells; format: cell-based, human; conditions: 48 h
Protocol: as §5

L02 cells [15] = assay: HCS LipidTOX Green intracellular lipid assay, L02 cells; format: cell-based, human; conditions: 24 h
Protocol: as §2

HepG2 cells [16] = assay: HCS LipidTOX Green intracellular lipid assay, HepG2 cells; format: cell-based, human; conditions: 24 h
Protocol: as §2

[17] = Homo sapiens, L02, CCK-8, incubation 24 h or 48 h, read-out: IC50 toward L02 cells
[18] = Homo sapiens, HepG2, CCK-8, incubation 24 h or 48 h, read-out: IC50 toward HepG2 cells
[19] = Homo sapiens, HepG2, cell line not distinguished

Compound: O=c1ccc2ccc3occc3c2o1 [Isopsoralen, isopsoralen]
effect on cell viability / hepatocyte toxicity (in words) (L02 and HepG2 cells [3]): little hepatocyte toxicity; also recorded: very low or no toxicity
IC50 (L02 cells [4]; Homo sapiens, L02, read-out: IC50 toward L02 cells): 77.9 µM
IC50 (HepG2 cells [5]; Homo sapiens, HepG2, read-out: IC50 toward HepG2 cells): 174 µM

Compound: CC(C)=CCc1cc2c(cc1O)O[C@H](c1ccc(O)cc1)CC2=O [Bavachin, bavachin]
ALP, ALT, and AST contents (L02 cells [1]): increased
ROS level (L02 cells [13]): increased
IC50 (L02 and HepG2 cells [3]; [19]): ~30 µM
effect on cell viability / hepatocyte toxicity (in words) (L02 and HepG2 cells [3]): intense repression of cell viability
IC50 (L02 cells [4]; [17]): 33.9 µM
IC50 (HepG2 cells [5]; [18]): 34.8 µM
apoptotic cell percentage (L02 cells [14]; L02 cells, increased from 6.7%, concentration not given): 44.47%
effect on lipid accumulation, L02 cells compared with HepG2 cells (L02 and HepG2 cells [9]; human, 24 h, 68 μmol/L): stronger inducing effect on lipid accumulation in the HepG2 cells
cell early apoptosis percentage (L02 and HepG2 cells [6]): markedly and progressively increased

Compound: C=C[C@@](C)(/C=C/c1ccc(O)cc1)CCC=C(C)C [Bakuchiol, bakuchiol]
ROS generation (HepG2 cells [7]): promoted ROS generation
effect on ROS induction, L02 cells compared with HepG2 cells (L02 and HepG2 cells [2]; 52 μmol/L): stronger effect on ROS induction in L02 cells than HepG2 cells
effect on ALP, ALT, and AST contents (in words, discussion) (L02 and HepG2 cells [11]): little effect
increase of ALP, ALT, and AST levels (discussion) (L02 and HepG2 cells [11]): five times
IC50 (L02 and HepG2 cells [3]; [19]): ~25 µM
effect on cell viability / hepatocyte toxicity (in words) (L02 and HepG2 cells [3]): more potent inhibitory effects on cell viability than other compounds
lipid accumulation, times higher than control (L02 cells [15]; 13 μmol/L): 1.88 times
lipid accumulation, times higher than control (L02 cells [15]; 26 μmol/L): 2.18 times
lipid accumulation, times higher than control (L02 cells [15]; 52 μmol/L): 3.37 times
IC50 (L02 cells [4]; [17]): 25.9 µM
IC50 (HepG2 cells [5]; [18]): 34.5 µM
lipid accumulation, times higher than control (HepG2 cells [16]; first of three doses (13 μmol/L)): 1.27 times
lipid accumulation, times higher than control (HepG2 cells [16]; second of three doses (26 μmol/L)): 2.37 times
lipid accumulation, times higher than control (HepG2 cells [16]; third of three doses (52 μmol/L)): 5.84 times
necrotic cell percentages (L02 cells [14]; 52 μmol/L, Figure 7I): 34.6%
cell early apoptosis percentage (L02 and HepG2 cells [6]): markedly and progressively increased
effect on cell apoptosis (in words) (L02 and HepG2 cells [6]): induced apoptosis in a dose-dependent manner

The next lines start with results.

IC50 (HepG2 cells [5]; [18]): 51.7 µM
Compound: CC(C)=CCc1cc(-c2coc3cc(O)ccc3c2=O)ccc1O [Neobavaisoflavone, neobavaisoflavone]
ALP, ALT, and AST contents (L02 cells [1]): increased
effect on ROS induction, L02 cells compared with HepG2 cells (L02 and HepG2 cells [2]): stronger effect on ROS induction in L02 cells than HepG2 cells
effect on cell viability / hepatocyte toxicity (in words) (L02 and HepG2 cells [3]): intense repression of cell viability
IC50 (L02 cells [4]; [17]): 47.8 µM
cell early apoptosis percentage (L02 and HepG2 cells [6]): markedly and progressively increased
effect on cell apoptosis (in words) (L02 and HepG2 cells [6]): induced apoptosis in a dose-dependent manner

ROS level (HepG2 cells [7]; HepG2 cells, 30 and 60 μmol/L, 24 h): increased
MMP levels (L02 and HepG2 cells [8]): reduced
IC50 (HepG2 cells [5]; CCK-8, incubation 24 h or 48 h, read-out: IC50 toward HepG2 cells): 29.1 µM
Compound: bavachinin
ALP, ALT, and AST contents (L02 cells [1]; L02 cells, high dosage, 24 h): increased
effect on cell viability / hepatocyte toxicity (in words) (L02 and HepG2 cells [3]): intense repression of cell viability
IC50 (L02 and HepG2 cells [3]; cell line not distinguished): ~30 µM
IC50 (L02 cells [4]; CCK-8, incubation 24 h or 48 h, read-out: IC50 toward L02 cells): 29.8 µM
effect on lipid accumulation, L02 cells compared with HepG2 cells (L02 and HepG2 cells [9]; 60 μmol/L): more substantial effect on lipid accumulation in L02 cells than HepG2 cells
lipid accumulation levels (L02 and HepG2 cells [9]; L02 and HepG2 cells, 24 h, p < 0.05, p < 0.01): promoted lipid accumulation
cell apoptosis at low dose concentration (L02 and HepG2 cells [6]; 15 μmol/L, 48 h): induced cell apoptosis
cell early apoptosis percentage (L02 and HepG2 cells [6]; as the concentration increased, compared with the control): markedly and progressively increased

IC50 (HepG2 cells [5]; [18]): 739 µM
Compound: O=c1ccc2cc3ccoc3cc2o1 [Psoralen, psoralen]
effect on cell viability / hepatocyte toxicity (in words) (L02 and HepG2 cells [3]): very low or no toxicity
effect on cell viability / hepatocyte toxicity (in words) (L02 and HepG2 cells [3]; listed as psoralen): little hepatocyte toxicity
IC50 (L02 cells [4]; [17]): 284 µM
IC50 (HepG2 cells [10]): ~400 µM

IC50 (HepG2 cells [5]; [18]): 23.4 µM
Compound: CC(C)=CCc1cc2c(cc1O)oc(=O)c1c3ccc(O)cc3oc21 [Psoralidin, psoralidin]
increase of ALP, ALT, and AST levels (discussion) (L02 and HepG2 cells [11]): five times
induction of ALP, ALT, and AST contents (L02 and HepG2 cells [11]): more than fivefold
IC50 (L02 and HepG2 cells [3]; [19]): ~25 µM
effect on cell viability / hepatocyte toxicity (in words) (L02 and HepG2 cells [3]): more potent inhibitory effects on cell viability than other compounds
IC50 (L02 cells [4]; [17]): 23.1 µM
ALP level, times higher than control (HepG2 cells [12]): 5.7 times
AST level, times higher than control (HepG2 cells [12]): 5.4 times
effect on lipid accumulation, L02 cells compared with HepG2 cells (L02 and HepG2 cells [9]; human, 24 h): more substantial effect on lipid accumulation in L02 cells than HepG2 cells
effect on cell apoptosis (in words) (L02 and HepG2 cells [6]): little effect on cell apoptosis
apoptotic cell percentage (L02 and HepG2 cells [6]; 46 μmol/L, 48 h, Figure 7C,D): 17%
